Data as given in ChEMBL document CHEMBL1128882, “Novel lignan derivatives as selective inhibitors of DNA topoisomerase II” (1995).
Activity calls are given as the source filed them. The calls are words filed in the database; no cut-off is given here.

Legend:
[1] = target: T1, DNA topoisomerase 1 (Homo sapiens) (UniProt P11387); test: In vitro inhibition of DNA topoisomerase I activity (ATP-independent DNA relaxation) at a concentration of 50 uM; no activity
T1 sequence (whole entry): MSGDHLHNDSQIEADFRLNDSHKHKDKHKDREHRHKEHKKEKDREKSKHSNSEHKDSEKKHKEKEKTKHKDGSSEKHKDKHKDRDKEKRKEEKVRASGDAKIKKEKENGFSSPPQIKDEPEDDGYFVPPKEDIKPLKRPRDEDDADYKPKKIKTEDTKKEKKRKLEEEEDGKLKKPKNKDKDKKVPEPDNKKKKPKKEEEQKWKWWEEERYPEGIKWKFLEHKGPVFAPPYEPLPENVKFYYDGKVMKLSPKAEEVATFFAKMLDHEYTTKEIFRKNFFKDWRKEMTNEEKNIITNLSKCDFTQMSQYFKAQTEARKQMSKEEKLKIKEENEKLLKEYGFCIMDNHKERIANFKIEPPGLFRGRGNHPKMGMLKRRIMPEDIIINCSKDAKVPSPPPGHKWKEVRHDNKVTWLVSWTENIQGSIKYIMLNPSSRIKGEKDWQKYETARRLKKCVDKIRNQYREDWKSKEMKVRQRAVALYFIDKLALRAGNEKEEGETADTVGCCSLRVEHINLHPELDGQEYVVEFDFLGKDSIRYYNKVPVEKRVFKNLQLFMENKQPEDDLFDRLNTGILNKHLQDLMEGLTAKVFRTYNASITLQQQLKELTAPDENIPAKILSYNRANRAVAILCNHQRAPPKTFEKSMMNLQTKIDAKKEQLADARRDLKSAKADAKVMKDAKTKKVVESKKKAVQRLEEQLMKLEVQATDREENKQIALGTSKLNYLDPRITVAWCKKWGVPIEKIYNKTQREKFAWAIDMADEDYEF

[2] = system: KB; test: In vitro topoisomerase II -DNA complex formation at a concentration of 100 uM; no activity; format: functional, cell-based; conditions: Homo sapiens
[3] = system: KB; test: In vitro cellular protein-DNA complex formation at a concentration of 50 uM; no activity; format: functional, cell-based; conditions: Homo sapiens
[4] = system: KB; test: In vitro topoisomerase II -DNA complex formation at a concentration of 10 uM; no activity; format: functional, cell-based; conditions: Homo sapiens
[5] = system: KB; test: In vitro topoisomerase II -DNA complex formation at a concentration of 1 uM; no activity; format: functional, cell-based; conditions: Homo sapiens
[6] = system: KB; test: In vitro topoisomerase II -DNA complex formation at a concentration of 50 uM; no activity; format: functional, cell-based; conditions: Homo sapiens
[7] = target: DNA topoisomerase 2-beta (Homo sapiens) (UniProt Q02880); test: In vitro inhibition of DNA topoisomerase II activity (DNA unknotting) at a concentration of 50 uM
[8] = target: T1, DNA topoisomerase 1 (Homo sapiens); test: In vitro inhibition of DNA topoisomerase I activity (ATP-independent DNA relaxation) at a concentration of 50 uM
[9] = system: KB; test: In vitro topoisomerase II -DNA complex formation at a concentration of 50 uM; format: functional, Homo sapiens
[10] = system: KB; test: In vitro cellular protein-DNA complex formation at a concentration of 50 uM; format: functional, Homo sapiens

DNA topoisomerase 2-beta (Homo sapiens), sequence (Q02880 whole entry): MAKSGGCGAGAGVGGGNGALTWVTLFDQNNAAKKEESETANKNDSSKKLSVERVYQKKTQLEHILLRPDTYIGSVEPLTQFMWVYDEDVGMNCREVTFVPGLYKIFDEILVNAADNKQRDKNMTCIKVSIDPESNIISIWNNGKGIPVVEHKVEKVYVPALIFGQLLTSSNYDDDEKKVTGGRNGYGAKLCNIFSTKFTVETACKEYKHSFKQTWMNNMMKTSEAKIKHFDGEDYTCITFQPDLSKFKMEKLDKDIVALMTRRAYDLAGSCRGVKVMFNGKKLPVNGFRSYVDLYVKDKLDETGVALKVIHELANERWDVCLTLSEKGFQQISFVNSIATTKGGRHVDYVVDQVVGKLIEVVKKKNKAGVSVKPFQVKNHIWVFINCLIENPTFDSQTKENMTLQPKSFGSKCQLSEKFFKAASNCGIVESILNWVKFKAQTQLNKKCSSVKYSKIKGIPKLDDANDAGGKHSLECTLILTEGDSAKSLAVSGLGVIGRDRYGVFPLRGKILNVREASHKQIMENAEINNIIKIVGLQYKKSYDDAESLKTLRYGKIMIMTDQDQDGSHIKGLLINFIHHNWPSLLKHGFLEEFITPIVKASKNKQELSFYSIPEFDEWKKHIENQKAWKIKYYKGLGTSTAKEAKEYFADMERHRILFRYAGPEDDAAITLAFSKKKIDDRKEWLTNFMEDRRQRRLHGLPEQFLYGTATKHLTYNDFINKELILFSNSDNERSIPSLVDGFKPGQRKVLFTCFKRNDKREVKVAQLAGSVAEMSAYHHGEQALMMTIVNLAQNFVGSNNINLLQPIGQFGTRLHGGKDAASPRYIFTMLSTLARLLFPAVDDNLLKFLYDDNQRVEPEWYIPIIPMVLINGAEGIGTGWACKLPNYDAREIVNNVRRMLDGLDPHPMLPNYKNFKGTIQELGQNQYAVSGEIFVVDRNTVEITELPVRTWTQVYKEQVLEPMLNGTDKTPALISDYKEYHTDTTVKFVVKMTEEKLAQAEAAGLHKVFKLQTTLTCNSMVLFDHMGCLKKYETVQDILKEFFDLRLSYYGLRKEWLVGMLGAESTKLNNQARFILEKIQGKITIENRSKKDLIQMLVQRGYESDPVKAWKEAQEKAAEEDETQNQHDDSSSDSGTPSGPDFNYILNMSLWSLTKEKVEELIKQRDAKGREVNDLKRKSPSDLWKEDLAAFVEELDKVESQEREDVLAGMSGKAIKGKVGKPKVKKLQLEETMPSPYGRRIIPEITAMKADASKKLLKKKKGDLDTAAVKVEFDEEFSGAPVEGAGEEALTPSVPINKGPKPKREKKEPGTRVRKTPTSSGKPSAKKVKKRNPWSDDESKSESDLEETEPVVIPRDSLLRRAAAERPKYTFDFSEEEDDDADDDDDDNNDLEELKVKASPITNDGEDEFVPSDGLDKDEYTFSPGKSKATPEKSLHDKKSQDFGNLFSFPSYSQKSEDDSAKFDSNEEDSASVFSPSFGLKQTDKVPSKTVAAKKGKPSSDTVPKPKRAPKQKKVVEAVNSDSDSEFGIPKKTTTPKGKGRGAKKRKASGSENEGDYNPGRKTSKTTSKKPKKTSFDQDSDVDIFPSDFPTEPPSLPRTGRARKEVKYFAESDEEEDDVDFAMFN

SMILES | inhibition [1] | Complex formation [2] | Complex formation [3] | Complex formation [4] | Complex formation [5] | Complex formation [6] | inhibition [7] | inhibition [8] | Complex formation [9] | Complex formation [10]
O=C(O[C@@H]1C[C@](O)(C(=O)O)C[C@@H](O)[C@H]1O)C1=Cc2cc(O)c(O)cc2[C@@H](c2ccc(O)c(O)c2)[C@@H]1C(=O)O[C@@H]1C[C@](O)(C(=O)O)C[C@@H](O)[C@H]1O | inactive | No activity | No activity | No activity | No activity | No activity | 100% |  |  | 
O=C(O[C@H](Cc1ccc(O)c(O)c1)C(=O)O)C1=Cc2cc(O)c(O)cc2[C@@H](c2ccc(O)c(O)c2)[C@@H]1C(=O)O[C@H](Cc1ccc(O)c(O)c1)C(=O)O |  |  | No activity |  |  | No activity | 100% | 100% |  | 
O=C1OC(c2ccc(O)c(O)c2)C2C(=O)OC(c3ccc(O)c(O)c3)C12 (stereo not drawn) |  |  |  |  |  |  | 100% | 100% |  | 
COC(=O)C1=Cc2cc(O)c(O)cc2[C@@H](c2ccc(O)c(O)c2)[C@@H]1C(=O)OC | inactive |  | No activity |  |  | No activity | 100% |  |  | 
O=C(O[C@@H]1C[C@](O)(C(=O)O)C[C@@H](O)[C@H]1O)C1=Cc2cc(O)c(O)cc2[C@H](c2ccc(O)c(O)c2)[C@H]1C(=O)O[C@@H]1C[C@](O)(C(=O)O)C[C@@H](O)[C@H]1O | inactive | No activity | No activity | No activity | No activity | No activity | 100% |  |  | 
O=C(O)C1=Cc2cc(O)c(O)cc2[C@@H](c2ccc(O)c(O)c2)[C@@H]1C(=O)O |  |  |  |  |  |  | 100% | 100% |  | 
O=C(O[C@H](Cc1ccc(O)c(O)c1)C(=O)O)C1=Cc2cc(O)c(O)cc2[C@H](c2ccc(O)c(O)c2)[C@H]1C(=O)O[C@H](Cc1ccc(O)c(O)c1)C(=O)O |  |  | No activity |  |  | No activity | 100% | 100% |  | 
COc1cc([C@@H]2c3cc4c(cc3[C@@H](O[C@@H]3O[C@@H]5CO[C@@H](C)O[C@H]5[C@H](O)[C@H]3O)[C@H]3COC(=O)[C@H]23)OCO4)cc(OC)c1O [ETOPOSIDE] | inactive |  |  |  |  |  |  |  | 100% | 100%
